Assay results: ChEMBL document CHEMBL1240417, “QSAR studies of bioactivities of 1-(azacyclyl)-3-arylsulfonyl-1H-pyrrolo[2,3-b]pyridines as 5-HT6 receptor ligands using physicochemical descriptors and MLR and ANN-modeling” (Eur J Med Chem, 2010)

Target: 5-hydroxytryptamine receptor 6 (Homo sapiens, UniProt P50406)
Experiment: Binding affinity to 5HT6 receptor

Sequence of 5-hydroxytryptamine receptor 6 (P50406 whole entry): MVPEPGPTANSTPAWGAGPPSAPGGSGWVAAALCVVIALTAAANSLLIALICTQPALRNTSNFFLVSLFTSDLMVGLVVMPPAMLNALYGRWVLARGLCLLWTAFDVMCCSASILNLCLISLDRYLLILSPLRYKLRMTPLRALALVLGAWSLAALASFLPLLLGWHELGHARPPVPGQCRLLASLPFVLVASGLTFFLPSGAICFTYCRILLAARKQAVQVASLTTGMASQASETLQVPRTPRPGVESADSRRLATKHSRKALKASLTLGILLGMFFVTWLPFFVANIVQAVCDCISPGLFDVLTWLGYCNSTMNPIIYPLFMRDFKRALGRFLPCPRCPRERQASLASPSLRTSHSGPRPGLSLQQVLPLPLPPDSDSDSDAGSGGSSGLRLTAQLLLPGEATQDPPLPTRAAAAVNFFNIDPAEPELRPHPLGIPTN

Compound	Ki [nM]
CCN1CCCC(n2cc(S(=O)(=O)c3ccc(Cl)cc3)c3cccnc32)C1 (centres undefined)	33.1
CN1CCCC(n2cc(S(=O)(=O)c3c(Cl)nc4sccn34)c3cccnc32)C1 (centres undefined)	2
CCN1CCC(n2cc(S(=O)(=O)c3c(Cl)nc4sccn34)c3cccnc32)C1 (centres undefined)	1.41
O=S(=O)(c1cn(C2CCNC2)c2ncccc12)c1c(Cl)nc2sccn12 (centres undefined)	1
CC(C)N1CCCC(n2cc(S(=O)(=O)c3c(Cl)nc4sccn34)c3cccnc32)C1 (centres undefined)	1.7

Continued, values first:

Ki [nM]	Compound
1	O=S(=O)(c1ccc(Cl)s1)c1cn(C2CCNC2)c2ncccc12 (centres undefined)
0.794	CN1CCC(n2cc(S(=O)(=O)c3c(Cl)nc4sccn34)c3cccnc32)C1 (centres undefined)
0.708	O=S(=O)(c1cn(C2CCCNC2)c2ncccc12)c1c(Cl)nc2sccn12 (centres undefined)
0.708	CCN1CCCC(n2cc(S(=O)(=O)c3c(Cl)nc4sccn34)c3cccnc32)C1 (centres undefined)
